Drawing on patent publication US9499535B2, “Kinase inhibitors” (ORIGENIS GMBH, priority 2011, dated 2016), this text covers Ki and IC50 for twelve compounds.

The target of one test is T1, SYK kinase (Homo sapiens, UniProt P43405).
T1 construct: purchased Invitrogen, Carlsbad
The test is described as follows: SYK assay (OMNIA Kinase Assay, Invitrogen). Particulars: apparent Ki calculated from the IC50 using the Cheng-Prusoff equation; 1 mM ATP, 10 μM Peptide Substrate; read-out: SYK Activities: Ki. In kind it is biochemical. A digest of the protocol: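 Continuous SOX-fluorescence (Omnia) readout of Tyr 7 peptide (10 μM) phosphorylation with 1 mM ATP and 0.2 mM DTT at 30° C, started by SYK addition. Fluorescence (λex 360/λem 485 nm) was read every 30 s for 30 min. IC50 from velocity vs concentration; apparent Ki via Cheng-Prusoff.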

For the next test, the target named is MYLK (Homo sapiens, UniProt Q15746). The test is described as follows: MYLK assay (LanthaScreen Eu Kinase Binding Assay). The protocol:
In the assay LanthaScreen™ Eu Kinase Binding Assay by Invitrogen Corporation (Carlsbad) the effect of invention of a compound on the phosphorylation is determined by measurement of fluorescence intensity emission ratio based on the binding and displacement of a proprietary, Alexa Fluor® 647-labeled, ATP-competitive kinase inhibitor scaffold (kinase tracer) to the kinase of interest as described above.
To the wells of an 384 well small volume plate (Greiner, Frickenhausen) are added (i) the compound under test in 5% DMSO/distilled water (5 μl), (ii) 5 μl of the kinase antibody mixture resulting in a final concentration 5 nM MYLK, 2 nM EU-Anti-GST antibody in 1× kinase buffer A. The reaction was started with addition of (iii) 5 μl resulting in a final concentration of 30 nM tracer 236. The assay plate was incubated at RT for 1 h and fluorescence intensitiy readings were collected using a TECAN M1000 at two wavelengthes of λex 340/λem 615 nm and λex 340/λem 665 nm with a delay time of 100 μs and an integration time of 200 μs after 60 minutes. The emission ratio was calculated by division of the acceptor/tracer emission ([…]) by the antibody/donor emission ([…]). The inhibitor concentration was plotted versus the emission ratio to determine the IC50 using XLFit 5.0 (IDBS, Guildford) to fit to a sigmoidal dose response curve with a variable slope.
(In general: Time-resolved FRET reads energy transfer from a long-lived donor to a nearby acceptor.)

Another test deals with LRRK2 (Homo sapiens, UniProt Q5S007). Nature of the test: LRRK2 assay (LanthaScreen Eu Kinase Binding Assay). A digest of the protocol: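 Kinase binding was detected by europium anti-tag antibody FRET with a competing tracer, so inhibitor binding lowers the FRET signal. IC50 came from a variable-slope sigmoidal fit of emission ratio against inhibitor concentration.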
Setting [1] is: 5 nM MYLK, 30 nM tracer 236, RT 1 h, read-out: MYLK Activites: IC50.
Setting [2] is: 5 nM LRRK2, 10 nM tracer 236, RT 1 h, read-out: LRRK2 Activites: IC50.

Like-named read-outs stand apart in the source and are kept apart here. A value given as a limit tells only on which side of the number the result lay.

Sequence of MYLK (Q15746 whole entry): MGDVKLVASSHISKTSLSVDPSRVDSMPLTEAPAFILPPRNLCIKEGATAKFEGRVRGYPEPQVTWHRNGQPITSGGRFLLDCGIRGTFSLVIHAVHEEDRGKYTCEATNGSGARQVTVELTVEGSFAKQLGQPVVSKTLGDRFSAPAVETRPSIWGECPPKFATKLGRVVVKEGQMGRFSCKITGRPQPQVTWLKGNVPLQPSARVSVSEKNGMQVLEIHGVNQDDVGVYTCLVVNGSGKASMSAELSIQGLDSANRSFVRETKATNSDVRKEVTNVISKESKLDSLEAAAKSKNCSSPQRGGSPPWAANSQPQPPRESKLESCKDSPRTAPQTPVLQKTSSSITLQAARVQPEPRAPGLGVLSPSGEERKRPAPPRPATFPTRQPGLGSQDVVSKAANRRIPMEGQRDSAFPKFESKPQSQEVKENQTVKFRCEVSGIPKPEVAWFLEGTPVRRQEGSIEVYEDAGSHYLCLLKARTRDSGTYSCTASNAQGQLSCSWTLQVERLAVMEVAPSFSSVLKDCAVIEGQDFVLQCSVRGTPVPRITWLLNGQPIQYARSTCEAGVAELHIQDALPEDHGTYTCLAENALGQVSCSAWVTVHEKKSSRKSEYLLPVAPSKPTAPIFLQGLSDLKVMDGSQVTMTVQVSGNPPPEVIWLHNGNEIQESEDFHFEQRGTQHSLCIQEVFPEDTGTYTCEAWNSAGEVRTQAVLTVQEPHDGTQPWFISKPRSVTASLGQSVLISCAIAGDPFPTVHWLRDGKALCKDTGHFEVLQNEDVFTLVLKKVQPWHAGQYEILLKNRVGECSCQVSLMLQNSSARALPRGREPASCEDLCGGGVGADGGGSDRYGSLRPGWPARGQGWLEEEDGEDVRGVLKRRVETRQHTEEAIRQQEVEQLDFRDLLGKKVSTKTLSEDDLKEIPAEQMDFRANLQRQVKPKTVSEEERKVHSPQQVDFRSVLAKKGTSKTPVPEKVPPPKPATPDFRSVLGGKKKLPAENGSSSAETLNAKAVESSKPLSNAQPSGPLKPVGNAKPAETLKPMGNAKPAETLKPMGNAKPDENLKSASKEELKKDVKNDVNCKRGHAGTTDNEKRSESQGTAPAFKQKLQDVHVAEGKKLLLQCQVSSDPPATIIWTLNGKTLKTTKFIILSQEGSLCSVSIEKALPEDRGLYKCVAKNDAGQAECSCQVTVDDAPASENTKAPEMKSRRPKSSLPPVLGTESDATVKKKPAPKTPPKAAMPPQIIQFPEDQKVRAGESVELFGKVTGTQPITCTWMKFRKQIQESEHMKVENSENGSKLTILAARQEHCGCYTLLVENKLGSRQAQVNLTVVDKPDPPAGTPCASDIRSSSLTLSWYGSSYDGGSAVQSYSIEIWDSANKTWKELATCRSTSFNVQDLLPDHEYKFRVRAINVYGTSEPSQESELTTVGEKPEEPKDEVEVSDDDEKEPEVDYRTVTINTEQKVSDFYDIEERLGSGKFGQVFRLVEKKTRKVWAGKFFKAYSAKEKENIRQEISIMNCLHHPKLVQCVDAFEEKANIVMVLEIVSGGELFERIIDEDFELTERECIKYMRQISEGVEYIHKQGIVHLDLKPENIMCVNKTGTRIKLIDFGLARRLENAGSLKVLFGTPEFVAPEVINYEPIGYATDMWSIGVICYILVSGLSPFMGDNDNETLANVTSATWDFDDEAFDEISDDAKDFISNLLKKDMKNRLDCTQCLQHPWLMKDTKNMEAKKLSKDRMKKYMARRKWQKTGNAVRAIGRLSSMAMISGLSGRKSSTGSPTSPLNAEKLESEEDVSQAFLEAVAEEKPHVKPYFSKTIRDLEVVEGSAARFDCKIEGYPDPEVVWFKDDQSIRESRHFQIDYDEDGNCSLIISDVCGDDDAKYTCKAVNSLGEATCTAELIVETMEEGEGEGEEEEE
Sequence of LRRK2 (Q5S007 970-2527 limits assumed): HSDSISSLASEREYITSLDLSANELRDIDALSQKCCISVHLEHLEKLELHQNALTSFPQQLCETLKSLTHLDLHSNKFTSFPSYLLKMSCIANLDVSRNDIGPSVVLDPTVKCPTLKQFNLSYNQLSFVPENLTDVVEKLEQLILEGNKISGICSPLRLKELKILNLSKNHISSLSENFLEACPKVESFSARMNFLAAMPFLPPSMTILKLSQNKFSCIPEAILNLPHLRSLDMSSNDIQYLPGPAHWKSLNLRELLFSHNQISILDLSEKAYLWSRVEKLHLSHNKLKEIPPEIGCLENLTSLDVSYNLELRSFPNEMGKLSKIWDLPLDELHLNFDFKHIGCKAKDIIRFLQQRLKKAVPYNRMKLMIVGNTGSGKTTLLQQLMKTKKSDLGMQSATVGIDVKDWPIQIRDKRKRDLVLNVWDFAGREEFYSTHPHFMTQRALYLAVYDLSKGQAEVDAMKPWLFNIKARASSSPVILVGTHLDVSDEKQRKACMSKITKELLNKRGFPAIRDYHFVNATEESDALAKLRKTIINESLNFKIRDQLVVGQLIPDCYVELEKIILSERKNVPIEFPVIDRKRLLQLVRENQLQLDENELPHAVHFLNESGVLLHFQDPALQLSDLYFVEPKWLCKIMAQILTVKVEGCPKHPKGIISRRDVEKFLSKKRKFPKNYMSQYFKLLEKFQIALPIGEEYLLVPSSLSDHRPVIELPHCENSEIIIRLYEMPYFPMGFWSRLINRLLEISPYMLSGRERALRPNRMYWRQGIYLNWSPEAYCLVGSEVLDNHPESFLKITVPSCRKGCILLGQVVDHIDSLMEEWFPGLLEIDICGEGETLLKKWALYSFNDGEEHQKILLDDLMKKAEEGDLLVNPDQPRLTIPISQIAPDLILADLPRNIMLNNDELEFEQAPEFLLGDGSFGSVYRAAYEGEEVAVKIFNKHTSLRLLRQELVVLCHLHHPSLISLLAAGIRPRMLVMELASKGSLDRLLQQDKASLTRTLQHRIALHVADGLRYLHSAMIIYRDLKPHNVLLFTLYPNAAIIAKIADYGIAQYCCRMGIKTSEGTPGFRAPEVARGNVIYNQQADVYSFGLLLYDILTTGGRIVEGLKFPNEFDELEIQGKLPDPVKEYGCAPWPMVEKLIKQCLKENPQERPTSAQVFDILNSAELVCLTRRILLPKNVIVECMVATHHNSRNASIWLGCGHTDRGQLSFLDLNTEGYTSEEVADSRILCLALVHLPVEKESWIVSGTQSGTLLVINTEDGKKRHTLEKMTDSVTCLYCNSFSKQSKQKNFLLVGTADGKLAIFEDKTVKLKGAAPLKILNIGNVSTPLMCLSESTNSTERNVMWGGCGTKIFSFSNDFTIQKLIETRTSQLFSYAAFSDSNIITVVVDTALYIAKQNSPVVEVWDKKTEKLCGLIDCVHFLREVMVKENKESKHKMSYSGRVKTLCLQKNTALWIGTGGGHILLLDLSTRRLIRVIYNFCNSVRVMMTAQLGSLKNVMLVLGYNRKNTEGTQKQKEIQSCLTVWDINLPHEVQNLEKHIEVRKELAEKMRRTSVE

Broadly, the IC50 is the concentration that inhibits the measured activity by half. Regarding `COc1ccc2nc(Nc3ccc4c(c3)NC(=O)CCC4)c3n[nH]cc3c2c1` [Example #188, 8-(8-Methoxy-2H-pyrazolo[3,4-c]quinolin-4-ylamino)-1,3,4,5-tetrahydro-benzo[b]azepin-2-one], the Ki on SYK kinase was < 10 nM. In addition, the results for the IC50 on MYLK (setting [1]) and on LRRK2 (setting [2]) were < 5000 nM and 10 to 100 nM, respectively.
The matching figures for `COc1ccc2nc(Nc3ccc(N4CCN(C)CC4)cc3)c3n[nH]cc3c2c1` [Example #42, (8-Methoxy-2H-pyrazolo[3,4-c]quinolin-4-yl)-[4-(4-methyl-piperazin-1-yl)-phenyl]-amine]: 10 to 100 nM, < 5000 nM and 10 to 100 nM.
The matching figures for `COc1ccc2nc(Nc3cccc(S(N)(=O)=O)c3)c3n[nH]cc3c2c1` [Example #131, 3-(8-Methoxy-2H-pyrazolo[3,4-c]quinolin-4-ylamino)-benzenesulfonamide]: 100 to 1000 nM, < 5000 nM and 10 to 100 nM.
On to `COc1ccc2nc(Nc3ccc4c(c3)CCCN4C)c3n[nH]cc3c2c1` [Example #308, 8-methoxy-N-(1-methyl-1,2,3,4-tetrahydroquinolin-6-yl)-2H-pyrazolo[3,4-c]quinolin-4-amine], for which, at SYK kinase, the Ki is 10 to 100 nM. Also, the IC50 is < 5000 nM at MYLK (setting [1]) and 100 to 1000 nM on LRRK2 (setting [2]).
As for `COc1ccc2nc(Nc3ccc(N(C)C4CCN(C)CC4)cc3)c3n[nH]cc3c2c1` [Example #192, N-(8-Methoxy-2H-pyrazolo[3,4-c]quinolin-4-yl)-N′-methyl-N′-(1-methyl-piperidin-4-yl)-benzene-1,4-diamine], the Ki at SYK kinase was 10 to 100 nM. For the same compound, the IC50 at MYLK (setting [1]) is < 5000 nM; at LRRK2 (setting [2]) it was 10 to 100 nM.
`c1cnc2c(c1)nc(Nc1ccc3[nH]ncc3c1)c1n[nH]cc12` [Example #56, (1H-Indazol-5-yl)-(2H-2,3,5,9-tetraaza-cyclopenta[a]naphthalen-4-yl)-amine]: on SYK kinase, the Ki was < 10 nM. The IC50 is < 5000 nM on MYLK (setting [1]) and 10 to 100 nM on LRRK2 (setting [2]).
For `COc1ccc2nc(Nc3cn[nH]c3)c3[nH]ncc3c2c1` [Example #121, (8-Methoxy-3H-pyrazolo[3,4-c]quinolin-4-yl)-(1H-pyrazol-4-yl)-amine], in that order: 10 to 100 nM, < 5000 nM and 100 to 1000 nM.
Consider `COc1cccc2c1nc(Nc1cc(C3CC3)[nH]n1)c1n[nH]cc12` [Example #169, (5-Cyclopropyl-1H-pyrazol-3-yl)-(6-methoxy-2H-pyrazolo[3,4-c]quinolin-4-yl)-amine], for which the Ki on SYK kinase was < 10 nM. The IC50 on MYLK (setting [1]) was < 5000 nM; on LRRK2 (setting [2]) it was 10 to 100 nM.
As to `COc1ccc2nc(Nc3ccc(C(=O)N4CCC(=O)CC4)cc3)c3n[nH]cc3c2c1` [Example #305, 1-(4-((8-methoxy-2H-pyrazolo[3,4-c]quinolin-4-yl)amino)benzoyl)piperidin-4-one], the IC50 is < 5000 nM on MYLK and 10 to 100 nM on LRRK2 (LRRK2 Activites: IC50, 5 nM LRRK2, 10 nM tracer 236, RT 1 h).
Take `COc1ccc2nc(Nc3ccc(C(=O)N4CCCN(C)CC4)cc3)c3n[nH]cc3c2c1` [Example #304, (4-((8-methoxy-2H-pyrazolo[3,4-c]quinolin-4-yl)amino)phenyl)(4-methyl-1,4-diazepan-1-yl)methanone]: the IC50 on MYLK (setting [1]) is < 5000 nM; at LRRK2 (setting [2]), 100 to 1000 nM.
The matching figures for `COc1ccc2nc(Nc3ccc(C(=O)N4CCC(N5CCN(C)CC5)CC4)cc3OC)c3n[nH]cc3c2c1` [Example #295, (3-methoxy-4-((8-methoxy-2H-pyrazolo[3,4-c]quinolin-4-yl)amino)phenyl)(4-(4-methylpiperazin-1-yl)piperidin-1-yl)methanone]: < 5000 nM and 10 to 100 nM.
The matching figures for `COc1ccc2nc(Nc3cccc(C(C)=O)c3)c3n[nH]cc3c2c1` [Example #127, 1-[3-(8-Methoxy-2H-pyrazolo[3,4-c]quinolin-4-ylamino)-phenyl]-ethanone]: < 5000 nM and 100 to 1000 nM.
